From patent US20240366729A1, “COMBINATION OF A NURR1 AGONIST WITH AT LEAST ONE OF AN ALDOSTERONE ANTAGONIST, AN INSULIN MODULATOR AND A SULFONYLUREA” (GENESIS PHARMA SA, priority 2021, published 2024)
Entries after “also recorded” stand apart in the source; their conditions may differ.

How the values were obtained:
[1] = tested on: rat model of transient middle cerebral artery occlusion (t-MCAO); assay: Brain infarct size (TTC staining, ImageJ), rat t-MCAO model, Example 2; type: in vivo; details: at termination; amodiaquine 0.5 mg/kg, potassium canrenoate 0.33 mg/kg, glibenclamide 1 μg/kg, exenatide 0.05 μg/kg; vehicle 38%
[2] = tested on: rat model of transient middle cerebral artery occlusion (t-MCAO); assay: Neurological score (NSS), rat t-MCAO model, 7-day treatment (Example 2); type: in vivo; details: for Neurological score (NSS) vs vehicle: Day 1 and Day 8
Experimental: The study was performed in cycles, each one containing at least nine rats. Test compounds were administrated 20 minutes before reperfusion and twice a day thereafter. On Day 1, stroke was induced by the t-MCAO procedure. Neurological score (NSS), was performed before surgery, 24 hours and 7 days after t-MCAO. At study termination brains were harvested, sliced into five 2 mm thick coronal sections and stained with TTC for infarct size measurement. The experimental design and timeline for the two parts of the study are presented below.
The right Common Carotid artery (CCA) was exposed through a midline neck incision and carefully dissected free from surrounding nerves and fascia—from its bifurcation to the base of the skull. The Occipital artery branches of the External Carotid artery (ECA) were isolated, and these branches were dissected and coagulated. The ECA was dissected further distally and coagulated along with the terminal lingual and maxillary artery branches, just before their bifurcation. The Internal Carotid artery (ICA) was isolated and carefully separated from the adjacent Vagus nerve, and the Pterygopalatine artery was ligated close to its origin with a 5-0 nylon suture. […] The surgical wound was closed and the animals were returned to their cages to recover from anesthesia. One hour and half after occlusion rats were re-anesthetized and monofilament was withdrawn to allow reperfusion. The surgical wound was closed and rats were returned to their cages. Following surgery, animals were placed on a heating pad until their recovery from the anesthesia. All animals received subcutaneous Meloxicam at 2 mg/kg before and after surgery, daily during the next two days. They were observed frequently on the day of t-MCAO surgery and at least once daily thereafter.
Treatment was start 20 minutes before reperfusion and then at the end of the same day, via IP administration of the test compounds. Treatment continued twice a day for six consecutive days thereafter.
Neuroscore was graded on a scale of 0 to 18 (in which normal score is 0 and maximal deficit score is represented by 18).

[3] = tested on: rat superior mesenteric arteries; details: cited from earlier work
[4] = tested on: mouse model of intracerebral haemorrhage (ICH); details: 40 mg/kg, cited from earlier work
Nurr1 = Nurr1 (Homo sapiens, UniProt P43354); details: through physical interaction with its ligand binding domain (LBD); cited from earlier work
Nurr1, sequence (P43354 whole entry, species assumed, the tested form may be a part): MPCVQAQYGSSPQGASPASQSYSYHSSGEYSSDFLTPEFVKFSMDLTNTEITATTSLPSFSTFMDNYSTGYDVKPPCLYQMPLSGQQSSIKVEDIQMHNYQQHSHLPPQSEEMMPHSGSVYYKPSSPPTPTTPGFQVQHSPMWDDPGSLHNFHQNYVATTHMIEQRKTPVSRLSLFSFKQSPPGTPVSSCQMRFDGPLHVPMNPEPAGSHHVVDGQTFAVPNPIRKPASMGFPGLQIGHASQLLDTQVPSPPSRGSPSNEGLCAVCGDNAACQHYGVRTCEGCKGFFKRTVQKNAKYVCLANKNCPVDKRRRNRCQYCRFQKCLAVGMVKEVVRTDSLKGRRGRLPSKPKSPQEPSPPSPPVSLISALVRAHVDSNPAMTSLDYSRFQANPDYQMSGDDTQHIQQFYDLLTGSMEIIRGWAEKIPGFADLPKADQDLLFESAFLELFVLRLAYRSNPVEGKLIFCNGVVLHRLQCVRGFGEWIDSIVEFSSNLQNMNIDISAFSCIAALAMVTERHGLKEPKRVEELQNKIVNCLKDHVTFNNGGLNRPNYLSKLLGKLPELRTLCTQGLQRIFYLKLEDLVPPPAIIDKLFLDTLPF

[5] = tested on: rat thromboembolic model of stroke; details: continuous infusion 75 ng/h; 7 days post middle cerebral artery occlusion; cited from earlier work
[6] = tested on: patients with acute hemispheric infarction; details: oral administration; cited from earlier work
[7] = tested on: experimental intracerebral hemorrhage in mice; details: 10 μg either before or at 2 h after hemorrhage; cited from earlier work
[8] = tested on: rodent models of brain ischemia and reperfusion injury; details: 1 mg/kg administered 10 min before reperfusion; cited from earlier work
[9] = tested on: rodent models of subarachnoid hemorrhage; details: loading dose 10 μg/kg intraperitoneally, then infusion 200 ng/hr for 24 hours or one week; cited from earlier work
[10] = tested on: patients with large hemispheric infarctions; details: intravenous 0.13 mg bolus, 0.16 mg/h for 6 h, then 0.11 mg/h for 66 h; cited from earlier work
[11] = tested on: rat model of stroke (middle cerebral artery occlusion); details: 10 μg/kg IP loading dose plus 200 ng/h subcutaneous infusion beginning 4.5 h or 10 h after onset of ischemia; cited from earlier work
[12] = tested on: collagenase-induced intracerebral hemorrhage; details: 10 μg/kg loading dose followed by 200 ng/h for up to 7 days; cited from earlier work

C[C@]12CCC(=O)C=C1C=C[C@@H]1[C@@H]2CC[C@@]2(C)[C@H]1CC[C@@]2(O)CCC(=O)[O-].[K+] [Potassium canrenoate, potassium 3-[(8R,9S,10R,13S,14S,17R)-17-hydroxy-10,13-dimethyl-3-oxo-2,8,9,11,12,14,15,16-octahydro-1H-cyclopenta[a]phenanthren-17-yl]propanoate]
Brain infarct size vs vehicle, Part II [1]: Statistically significant differences in infarct size; also recorded: Less prominent decrease in infarct volume | Neurological score (NSS) vs vehicle, Part II ([2]; Day 1, amodiaquine 0.5 mg/kg, potassium canrenoate 0.33 mg/kg, glibenclamide 1 μg/kg, exenatide 0.05 μg/kg, 20 min before reperfusion and twice a day): Statistically significant differences

CCN(CC)Cc1cc(Nc2ccnc3cc(Cl)ccc23)ccc1O [Amodiaquine, 4-[(7-chloroquinolin-4-yl)amino]-2[(diethylamino)methyl]-phenol]
Vasorelaxation [3]: induce vasorelaxation | Perihematomal activation of microglia/macrophages and astrocytes ([4]; i.p. daily from 3 h after ICH induction): diminished perihematomal activation of microglia/macrophages and astrocytes | ICH-induced mRNA expression of IL-1β, CCL2 and CXCL2 ([4]; i.p. daily): suppressed ICH-induced mRNA expression of IL-1β, CCL2 and CXCL2 | Motor dysfunction ([4]; i.p. daily): ameliorated motor dysfunction | Neurological score (NSS) vs vehicle ([2]; amodiaquine 0.5 mg/kg (Group 5M), 20 min before reperfusion and twice a day): Statistically significant differences; also recorded: statistically significant NSS improvement | Neurological score (NSS) vs vehicle ([2]; amodiaquine 7 mg/kg (Group 3M), 20 min before reperfusion and twice a day): Statistically significant differences; also recorded: statistically significant NSS improvement | Neurological score (NSS) vs vehicle ([2]; amodiaquine 20 mg/kg (Group 2M), 20 min before reperfusion and twice a day): Statistically significant differences; also recorded: statistically significant NSS improvement | Neurological score (NSS) vs vehicle, monotherapy at different doses ([2]; amodiaquine 0.5-20 mg/kg): improved significantly and dose dependently the neurological score | Transcriptional function of Nurr1 (Nurr1): stimulate the transcriptional function of Nurr1

CCN(CC)CCCC(C)Nc1ccnc2cc(Cl)ccc12 (stereo not drawn) [chloroquine]
Transcriptional function of Nurr1 (Nurr1): stimulate the transcriptional function of Nurr1

COc1ccc(Cl)cc1C(=O)NCCc1ccc(S(=O)(=O)NC(=O)NC2CCCCC2)cc1 [Glibenclamide, 5-chloro-N-[2-[4-(cyclohexylcarbamoyl-sulfamoyl)phenyl]ethyl]-2-methoxybenzamide]
Reduction of cerebral edema, infarct volume and mortality [5]: 50% | 6-month functional outcome [6]: did not substantially improve 6-month functional outcome | Safety of treatment [6]: safe | Cerebral edema, BBB disruption and neurological deficit [7]: alleviate cerebral edema, disrupted BBB, and neurological deficit | Efficacy in brain ischemia and reperfusion injury [8]: effective | Efficacy in subarachnoid hemorrhage [9]: effective | Brain swelling (midline shift), MMP-9, functional outcomes and mortality [10]: promising findings | Hemispheric swelling, mortality and Garcia scores [11]: significantly reduced hemispheric swelling at 24 h and 48-h mortality and improved Garcia scores at 48 h | Efficacy in collagenase intracerebral hemorrhage [12]: not effective
